# Measurements from ChEMBL document CHEMBL4419169, “Novel Ferroportin Inhibitors” (2018).
# The source made the active and inactive calls. The rule behind the calls is not given here.
# Assays:
# [1] = molecular target: T1, Ferroportin (Mus musculus) (UniProt Q9JHI9); assay: Inhibition of ferroportin in mouse J774 cells assessed as induce ferroportin ubiquitination and degradation at 1.5 uM incubated for 120 mins by immunoprecipitation assay; assay type: cell-based
# T1 sequence (whole entry): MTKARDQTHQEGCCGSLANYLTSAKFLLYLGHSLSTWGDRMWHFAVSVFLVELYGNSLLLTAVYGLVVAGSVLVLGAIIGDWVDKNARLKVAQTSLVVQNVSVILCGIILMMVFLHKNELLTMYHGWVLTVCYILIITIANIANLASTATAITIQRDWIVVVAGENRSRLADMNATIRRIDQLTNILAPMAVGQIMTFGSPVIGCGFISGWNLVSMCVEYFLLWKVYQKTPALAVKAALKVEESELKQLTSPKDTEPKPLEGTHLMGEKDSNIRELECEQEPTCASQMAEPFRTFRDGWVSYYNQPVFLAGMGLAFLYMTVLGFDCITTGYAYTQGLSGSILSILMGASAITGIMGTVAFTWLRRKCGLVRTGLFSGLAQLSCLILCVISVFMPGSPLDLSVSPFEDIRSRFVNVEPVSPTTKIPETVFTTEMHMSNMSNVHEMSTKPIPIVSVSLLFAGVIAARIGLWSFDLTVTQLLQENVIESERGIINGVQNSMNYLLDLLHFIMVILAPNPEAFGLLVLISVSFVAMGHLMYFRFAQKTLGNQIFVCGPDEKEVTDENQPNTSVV
# [2] = molecular target: T1, Ferroportin (Mus musculus); assay: Inhibition of ferroportin in mouse J774 cells assessed as induce ferroportin ubiquitination and degradation at 1.5 uM incubated for 10 mins by immunoprecipitation assay; assay type: cell-based
# [3] = tested on: Mus musculus; assay: Disease modifying capacity in mouse model of transfusion-independent beta-thalassemia intermedia assessed as prevention of liver [58Fe] loading at 60 mg/kg, po BID for 20 days relative to control; assay type: functional
# [4] = tested on: Mus musculus; assay: Disease modifying capacity in mouse model of transfusion-independent beta-thalassemia intermedia assessed as decrease in serum erythropoietin at 60 mg/kg, po BID for 20 days relative to control; assay type: functional; set-up: scale not given: the % may be the effect or the level left
# [5] = tested on: Mus musculus; assay: Disease modifying capacity in mouse model of transfusion-independent beta-thalassemia intermedia assessed as decrease in RDW level at 60 mg/kg, po BID for 20 days relative to control; assay type: functional; set-up: scale not given: the % may be the effect or the level left
# [6] = tested on: Mus musculus; assay: Disease modifying capacity in mouse model of transfusion-independent beta-thalassemia intermedia assessed as decrease in RDW level at 20 mg/kg, po BID for 20 days relative to control; assay type: functional; set-up: scale not given: the % may be the effect or the level left
# [7] = tested on: Mus musculus; assay: Disease modifying capacity in mouse model of transfusion-independent beta-thalassemia intermedia assessed as decrease in serum erythropoietin at 20 mg/kg, po BID for 20 days relative to control; assay type: functional; set-up: scale not given: the % may be the effect or the level left
# [8] = tested on: Mus musculus; assay: Disease modifying capacity in mouse model of transfusion-independent beta-thalassemia intermedia assessed as decrease in bone marrow ROS levels level at 60 mg/kg, po BID for 20 days relative to control; assay type: functional; set-up: scale not given: the % may be the effect or the level left
# [9] = tested on: Mus musculus; assay: Disease modifying capacity in mouse model of transfusion-independent beta-thalassemia intermedia assessed as increase in blood erythrocyte counts at 20 mg/kg, po BID for 20 days relative to control; assay type: functional
# [10] = molecular target: T1, Ferroportin (Mus musculus); assay: Inhibition of ferroportin in mouse J774 cells assessed as induce ferroportin ubiquitination and degradation at […] incubated for 10 mins by immunoprecipitation assay; assay type: cell-based
# [11] = tested on: Mus musculus; assay: Induction of hypoferremia in wild type C57BL/6 mouse assessed as decrease in serum iron levels at 30 mg/kg, po measured after 3 hrs post dose; assay type: functional; set-up: scale not given: the % may be the effect or the level left
# [12] = tested on: Mus musculus; assay: Disease modifying capacity in mouse model of transfusion-independent beta-thalassemia intermedia assessed as increase in hematocrit levels at 60 mg/kg, po BID for 20 days relative to control; assay type: functional
# [13] = tested on: Mus musculus; assay: Disease modifying capacity in mouse model of transfusion-independent beta-thalassemia intermedia assessed as decrease in [58Fe] spleen iron content at 20 mg/kg, po BID for 20 days relative to control; assay type: functional; set-up: scale not given: the % may be the effect or the level left
# [14] = tested on: Mus musculus; assay: Disease modifying capacity in mouse model of transfusion-independent beta-thalassemia intermedia assessed as decrease in blood reticulocyte counts at 20 mg/kg, po BID for 20 days relative to control; assay type: functional; set-up: scale not given: the % may be the effect or the level left
# [15] = tested on: Rattus norvegicus; assay: Prevention of iron absorption in anemic Wistar rat model of iron absorption assessed as inhibition of increase in serum iron at 10 mg/kg, po pre-dosed 1 hr before ferrous sulfate dosing and measured 3 hours after iron dosing; assay type: functional
# [16] = tested on: Mus musculus; assay: Disease modifying capacity in mouse model of transfusion-independent beta-thalassemia intermedia assessed as increase in blood erythrocyte counts at 60 mg/kg, po BID for 20 days relative to control; assay type: functional
# [17] = tested on: Mus musculus; assay: Prevention of hyperferremia in iron overloaded beta2-microglobulin deficient female mouse assessed as reduction in serum iron level at 60 mg/kg, po measured after 3 hrs relative to control; assay type: functional; set-up: scale not given: the % may be the effect or the level left
# [18] = tested on: Mus musculus; assay: Disease modifying capacity in mouse model of transfusion-independent beta-thalassemia intermedia assessed as increase in hematocrit levels at 20 mg/kg, po BID for 20 days relative to control; assay type: functional
# [19] = tested on: Rattus norvegicus; assay: Prevention of iron absorption in anemic Wistar rat model of iron absorption assessed as inhibition of increase in serum iron at 30 mg/kg, po pre-dosed 1 hr before ferrous sulfate dosing and measured 3 hours after iron dosing; assay type: functional
# [20] = molecular target: T1, Ferroportin (Mus musculus); assay: Inhibition of ferroportin in mouse J774 cells assessed as induce ferroportin ubiquitination and degradation at […] incubated for 120 mins by immunoprecipitation assay; assay type: cell-based
# [21] = tested on: Rattus norvegicus; assay: Prevention of iron absorption in anemic Wistar rat model of iron absorption assessed as inhibition of increase in serum iron at 3 mg/kg, po pre-dosed 1 hr before ferrous sulfate dosing and measured 3 hours after iron dosing; assay type: functional
# [22] = tested on: Mus musculus; assay: Decrease in serum iron in mouse model of transfusion-independent beta-thalassemia intermedia at 20 mg/kg, po BID for 20 days relative to control; assay type: functional; set-up: scale not given: the % may be the effect or the level left
# [23] = tested on: Mus musculus; assay: Disease modifying capacity in mouse model of transfusion-independent beta-thalassemia intermedia assessed as prevention of liver [58Fe] loading at 20 mg/kg, po BID for 20 days relative to control; assay type: functional
# [24] = tested on: Mus musculus; assay: Disease modifying capacity in mouse model of transfusion-independent beta-thalassemia intermedia assessed as decrease in blood reticulocyte counts at 60 mg/kg, po BID for 20 days relative to control; assay type: functional; set-up: scale not given: the % may be the effect or the level left
# [25] = tested on: Mus musculus; assay: Disease modifying capacity in mouse model of transfusion-independent beta-thalassemia intermedia assessed as decrease in leukocyte counts level at 60 mg/kg, po BID for 20 days relative to control; assay type: functional; set-up: scale not given: the % may be the effect or the level left
# [26] = tested on: Mus musculus; assay: Decrease in serum iron in mouse model of transfusion-independent beta-thalassemia intermedia at 60 mg/kg, po BID for 20 days relative to control; assay type: functional; set-up: scale not given: the % may be the effect or the level left
# [27] = tested on: Mus musculus; assay: Induction of hypoferremia in wild type C57BL/6 mouse assessed as decrease in serum iron levels at 100 mg/kg, po measured after 3 hrs post dose; assay type: functional; set-up: scale not given: the % may be the effect or the level left
# [28] = tested on: Mus musculus; assay: Disease modifying capacity in mouse model of transfusion-independent beta-thalassemia intermedia assessed as decrease in leukocyte counts level at 20 mg/kg, po BID for 20 days relative to control; assay type: functional; set-up: scale not given: the % may be the effect or the level left
# [29] = tested on: Mus musculus; assay: Disease modifying capacity in mouse model of transfusion-independent beta-thalassemia intermedia assessed as decrease in [58Fe] spleen iron content at 60 mg/kg, po BID for 20 days relative to control; assay type: functional; set-up: scale not given: the % may be the effect or the level left
# [30] = tested on: Mus musculus; assay: Prevention of hyperferremia in iron overloaded beta2-microglobulin deficient female mouse assessed as reduction in serum iron level at 20 mg/kg, po measured after 3 hrs relative to control; assay type: functional; set-up: scale not given: the % may be the effect or the level left
# [31] = tested on: Mus musculus; assay: Induction of hypoferremia in wild type C57BL/6 mouse assessed as decrease in serum iron levels at 10 mg/kg, po measured after 3 hrs post dose; assay type: functional; set-up: scale not given: the % may be the effect or the level left
# [32] = tested on: Mus musculus; assay: Prevention of hyperferremia in iron overloaded beta2-microglobulin deficient male mouse assessed as reduction in serum iron level at 20 mg/kg, po measured after 3 hrs relative to control; assay type: functional; set-up: scale not given: the % may be the effect or the level left
# [33] = tested on: Mus musculus; assay: Disease modifying capacity in mouse model of transfusion-independent beta-thalassemia intermedia assessed as decrease in spleen erythroferrone-mRNA at 20 mg/kg, po BID for 20 days relative to control; assay type: functional; set-up: scale not given: the % may be the effect or the level left
# [34] = tested on: Mus musculus; assay: Prevention of hyperferremia in iron overloaded beta2-microglobulin deficient male mouse assessed as reduction in serum iron level at 60 mg/kg, po measured after 3 hrs relative to control; assay type: functional; set-up: scale not given: the % may be the effect or the level left
# [35] = molecular target: T1, Ferroportin (Mus musculus); assay: Inhibition of ferroportin in mouse J774 cells assessed as induce ferroportin ubiquitination and degradation at 0.1 uM incubated for 120 mins by immunoprecipitation assay; assay type: cell-based
# [36] = tested on: Mus musculus; assay: Disease modifying capacity in mouse model of transfusion-independent beta-thalassemia intermedia assessed as decrease in bone marrow ROS levels level at 60 mg/kg, po BID for 27 days relative to control; assay type: functional; set-up: scale not given: the % may be the effect or the level left
# [37] = molecular target: T1, Ferroportin (Mus musculus); assay: Inhibition of ferroportin in mouse J774 cells assessed as induce ferroportin ubiquitination and degradation at 0.1 uM incubated for 10 mins by immunoprecipitation assay; assay type: cell-based
# [38] = tested on: Rattus norvegicus; assay: Prevention of iron absorption in orally dosed anemic Wistar rat model of iron absorption assessed as inhibition of increase in serum iron pre-dosed 1 hr before ferrous sulfate dosing and measured 3 hours after iron dosing; assay type: functional, organism-based
# [39] = molecular target: T1, Ferroportin (Mus musculus); assay: Inhibition of ferroportin in mouse J774 cells assessed as induce ferroportin ubiquitination and degradation at 0.2 uM incubated for 10 mins by immunoprecipitation assay; assay type: cell-based
# [40] = molecular target: T1, Ferroportin (Mus musculus); assay: Inhibition of ferroportin in mouse J774 cells assessed as induce ferroportin ubiquitination and degradation at 0.2 uM incubated for 120 mins by immunoprecipitation assay; assay type: cell-based
# [41] = molecular target: T1, Ferroportin (Mus musculus); assay: Inhibition of ferroportin in mouse J774 cells assessed as induce ferroportin ubiquitination and degradation at 0.05 uM incubated for 10 mins by immunoprecipitation assay; assay type: cell-based
# [42] = molecular target: T1, Ferroportin (Mus musculus); assay: Inhibition of ferroportin in mouse J774 cells assessed as induce ferroportin ubiquitination and degradation at 0.05 uM incubated for 120 mins by immunoprecipitation assay; assay type: cell-based
smiles,measurement,setting,value
O=C(NCc1ncccc1F)c1cnn(C2CN(CCc3nc4ccccc4[nH]3)C2)c1,inhibition,[1],Active
same,inhibition,[2],Active
O=C(NCc1ncccc1F)c1cnc(CCNCCc2nc3ccccc3[nH]2)o1,Activity,[3],40%
same,Activity,[4],78%
same,Activity,[5],16%
same,Activity,[6],3%
same,Activity,[7],64%
same,Activity,[8],45%
same,Activity,[9],4%
same,inhibition,[10],Active
same,Activity,[11],28%
same,Activity,[12],4%
same,Activity,[13],14%
same,Activity,[14],8%
same,inhibition in vivo at 10 mg/kg,[15],42.6%
same,Activity,[16],8%
same,Activity,[17],52%
same,Activity,[18],0%
same,inhibition in vivo at 30 mg/kg,[19],64.9%
same,inhibition,[20],Active
same,inhibition in vivo at 3 mg/kg,[21],2.1%
same,Activity,[22],49%
same,Activity,[23],12%
same,Activity,[24],39%
same,Activity,[25],44%
same,Activity,[26],66%
same,Activity,[27],51%
same,Activity,[28],32%
same,Activity,[29],48%
same,Activity,[30],31%
same,Activity,[31],0%
same,Activity,[32],31%
same,Activity,[33],82%
Cl.Cl.Cl.O=C(NCc1ncccc1F)c1coc(CCNCCc2nc3ccccc3[nH]2)n1 [VAMIFEPORT HYDROCHLORIDE],Activity,[34],83%
same,inhibition,[35],Active
same,Activity,[36],75%
same,Activity,[17],74%
same,inhibition,[37],Active
Cc1cccnc1CNC(=O)c1csc(CCNCc2nc3ccccc3[nH]2)n1,Activity,[38],Dose-dependent effect
O=C(NCc1ncccc1F)c1coc(C2CN(CCc3nc4ccccc4[nH]3)C2)n1,Activity,[34],67%
same,inhibition,[39],Active
same,Activity,[17],49%
same,inhibition,[40],Active
O=C(NCc1ncccc1F)c1coc(CCN(CCc2nc3ccccc3[nH]2)CCc2nc3ccccc3[nH]2)n1,inhibition,[41],Active
same,inhibition,[42],Active
